{"source": "paper PMC2919811", "about": "(Analytical biochemistry, 2010)", "key": {"OAT1": {"target": "T1, OAT1 (Homo sapiens, UniProt Q4U2R8)", "T1 sequence (Q4U2R8 1-563)": "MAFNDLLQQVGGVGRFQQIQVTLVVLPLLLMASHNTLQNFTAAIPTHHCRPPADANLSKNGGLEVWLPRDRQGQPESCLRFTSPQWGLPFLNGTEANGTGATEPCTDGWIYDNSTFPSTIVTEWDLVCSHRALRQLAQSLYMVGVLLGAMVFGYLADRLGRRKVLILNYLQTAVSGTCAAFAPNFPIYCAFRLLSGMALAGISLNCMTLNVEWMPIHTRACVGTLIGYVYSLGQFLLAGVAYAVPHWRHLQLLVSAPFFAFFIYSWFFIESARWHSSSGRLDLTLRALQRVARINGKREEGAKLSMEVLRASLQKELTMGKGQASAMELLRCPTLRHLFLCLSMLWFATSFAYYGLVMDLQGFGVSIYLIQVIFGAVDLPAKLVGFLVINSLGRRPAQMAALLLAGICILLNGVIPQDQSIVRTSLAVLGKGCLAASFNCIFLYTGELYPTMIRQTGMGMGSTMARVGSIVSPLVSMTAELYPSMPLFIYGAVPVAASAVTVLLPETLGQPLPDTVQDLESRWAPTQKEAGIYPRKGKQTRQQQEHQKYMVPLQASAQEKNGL", "experiment": "Cellular accumulation in CHO cells transiently transfected with OAT1", "assay_type": "cell-based", "conditions": "10 μM 8-FcA, 20 minutes"}, "OATP1B1": {"target": "OATP1B1 (Homo sapiens, UniProt Q9Y6L6)", "sequence (Q9Y6L6 whole entry)": "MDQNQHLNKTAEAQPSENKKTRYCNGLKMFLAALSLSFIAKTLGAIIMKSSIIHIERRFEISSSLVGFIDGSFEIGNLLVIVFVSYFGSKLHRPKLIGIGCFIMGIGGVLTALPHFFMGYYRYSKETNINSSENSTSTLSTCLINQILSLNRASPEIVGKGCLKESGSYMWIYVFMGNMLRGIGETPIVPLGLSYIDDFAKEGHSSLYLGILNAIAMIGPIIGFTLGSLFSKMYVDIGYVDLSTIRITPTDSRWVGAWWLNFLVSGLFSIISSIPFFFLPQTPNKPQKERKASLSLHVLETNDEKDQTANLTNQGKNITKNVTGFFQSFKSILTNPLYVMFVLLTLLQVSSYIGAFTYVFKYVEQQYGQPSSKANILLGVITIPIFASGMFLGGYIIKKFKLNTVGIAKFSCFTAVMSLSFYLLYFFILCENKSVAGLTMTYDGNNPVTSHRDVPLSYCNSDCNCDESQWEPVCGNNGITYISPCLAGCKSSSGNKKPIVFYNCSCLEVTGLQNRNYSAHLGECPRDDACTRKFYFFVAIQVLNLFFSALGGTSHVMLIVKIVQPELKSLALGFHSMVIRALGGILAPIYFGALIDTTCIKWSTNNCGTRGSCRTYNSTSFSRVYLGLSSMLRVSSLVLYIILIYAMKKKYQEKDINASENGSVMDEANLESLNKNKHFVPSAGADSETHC", "conditions": "10 μM 8-FcA, 20 minutes"}, "OCT2": {"target": "T2, OCT2 (Homo sapiens, UniProt O15244)", "T2 sequence (O15244 1-555)": "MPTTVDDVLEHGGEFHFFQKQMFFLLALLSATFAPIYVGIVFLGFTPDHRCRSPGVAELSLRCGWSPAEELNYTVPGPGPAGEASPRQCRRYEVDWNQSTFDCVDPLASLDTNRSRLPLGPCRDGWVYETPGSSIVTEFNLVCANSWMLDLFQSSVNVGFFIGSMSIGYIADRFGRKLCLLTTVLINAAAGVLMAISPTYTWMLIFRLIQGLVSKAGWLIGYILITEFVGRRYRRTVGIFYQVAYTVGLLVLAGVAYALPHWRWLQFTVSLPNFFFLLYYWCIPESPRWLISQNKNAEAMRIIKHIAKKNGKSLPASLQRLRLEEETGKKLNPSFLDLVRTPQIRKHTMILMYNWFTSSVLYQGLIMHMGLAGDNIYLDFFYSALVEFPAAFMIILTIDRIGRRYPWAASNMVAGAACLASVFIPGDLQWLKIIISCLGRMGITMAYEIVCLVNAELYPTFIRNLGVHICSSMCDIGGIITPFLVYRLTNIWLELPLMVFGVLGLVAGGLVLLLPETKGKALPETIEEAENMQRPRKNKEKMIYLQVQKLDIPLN", "experiment": "Cellular accumulation in CHO cells transiently transfected with OCT2", "assay_type": "cell-based", "conditions": "10 μM 8-FcA, 20 minutes"}, "OATP1B3": {"target": "T3, OATP1B3 (Homo sapiens, UniProt Q9NPD5)", "T3 sequence (Q9NPD5 1-702)": "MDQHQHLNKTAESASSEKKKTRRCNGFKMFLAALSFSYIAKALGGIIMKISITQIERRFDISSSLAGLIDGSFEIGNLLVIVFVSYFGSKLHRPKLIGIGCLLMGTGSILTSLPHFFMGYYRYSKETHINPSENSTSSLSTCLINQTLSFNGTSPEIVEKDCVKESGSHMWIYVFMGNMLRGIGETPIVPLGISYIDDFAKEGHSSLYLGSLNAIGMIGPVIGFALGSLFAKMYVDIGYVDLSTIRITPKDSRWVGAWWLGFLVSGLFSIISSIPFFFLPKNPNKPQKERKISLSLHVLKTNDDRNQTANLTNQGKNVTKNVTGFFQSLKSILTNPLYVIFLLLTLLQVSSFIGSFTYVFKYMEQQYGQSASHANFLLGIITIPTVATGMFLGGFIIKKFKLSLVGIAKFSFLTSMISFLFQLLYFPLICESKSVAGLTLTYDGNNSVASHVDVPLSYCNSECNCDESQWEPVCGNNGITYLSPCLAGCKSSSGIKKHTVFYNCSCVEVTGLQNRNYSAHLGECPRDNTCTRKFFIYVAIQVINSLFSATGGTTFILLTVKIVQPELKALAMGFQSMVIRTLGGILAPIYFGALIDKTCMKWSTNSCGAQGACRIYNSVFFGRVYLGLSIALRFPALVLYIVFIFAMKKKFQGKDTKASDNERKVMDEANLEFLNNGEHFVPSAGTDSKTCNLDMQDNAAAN", "experiment": "Substrate uptake and transport kinetics in CHO cells stably expressing OATP1B3"}, "OCT1": {"target": "T4, OCT1 (Homo sapiens, UniProt O15245)", "T4 sequence (O15245 1-554)": "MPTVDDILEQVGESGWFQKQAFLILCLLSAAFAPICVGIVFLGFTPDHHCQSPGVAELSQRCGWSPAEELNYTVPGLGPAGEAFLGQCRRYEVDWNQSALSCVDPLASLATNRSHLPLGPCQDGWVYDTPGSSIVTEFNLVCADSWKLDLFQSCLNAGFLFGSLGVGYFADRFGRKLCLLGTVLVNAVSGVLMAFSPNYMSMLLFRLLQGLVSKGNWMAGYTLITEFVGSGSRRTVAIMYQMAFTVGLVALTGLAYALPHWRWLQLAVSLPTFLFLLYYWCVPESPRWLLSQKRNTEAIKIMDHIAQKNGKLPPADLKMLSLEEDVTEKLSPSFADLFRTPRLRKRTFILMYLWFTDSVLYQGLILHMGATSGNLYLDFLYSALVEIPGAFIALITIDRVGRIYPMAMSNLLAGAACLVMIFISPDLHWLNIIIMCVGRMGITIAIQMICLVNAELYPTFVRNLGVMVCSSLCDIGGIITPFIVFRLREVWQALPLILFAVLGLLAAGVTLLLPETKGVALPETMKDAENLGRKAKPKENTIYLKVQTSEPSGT", "experiment": "Cellular accumulation in CHO cells transiently transfected with OCT1", "assay_type": "cell-based", "conditions": "10 μM 8-FcA, 20 minutes"}}, "note": "Values joined by “and” are separate entries in the source; they are usually repeats but may differ in a detail not shown here. Equal entries are not always repeated.", "data": [{"smiles": "Nc1ncnc2c1nc(SCCNC(=S)Nc1ccc(-c3c4ccc(=O)cc-4oc4cc(O)ccc34)c(C(=O)O)c1)n2[C@@H]1O[C@@H]2COP(=O)(O)O[C@H]2[C@H]1O", "note": "[8-FcA, 8-(2-[Fluoresceinyl]aminoethylthio) adenosine-3', 5'-cyclic monophosphate]", "values": [{"measurement": "cellular accumulation by fluorescence microscopy, OAT1", "setting": "OAT1", "value": "modest accumulation"}, {"measurement": "cellular accumulation by fluorescence microscopy, OATP1B1", "setting": "OATP1B1", "value": "readily accumulated"}, {"measurement": "cellular accumulation by fluorescence microscopy, OCT2", "setting": "OCT2", "value": "negative"}, {"measurement": "transport efficiency, Vmax/Km (OATP1B3)", "setting": "OATP1B3", "value": 0.183, "unit": "μL/min/cm^2"}, {"measurement": "cellular accumulation relative to control, CHOOATP1B3", "setting": "OATP1B3; 2 μM substrate, five minute accumulation, CHOvector = 1", "value": "robust accumulation"}, {"measurement": "Vmax of OATP1B3-mediated transport", "setting": "OATP1B3; 8-FcA 0.25-25 μM, 10 min uptake, CHOvector subtracted, mean ± standard error", "value": "0.33 pmol/min/cm^2 and 0.33±0.02 pmol/min/cm^2"}, {"measurement": "cellular accumulation by fluorescence microscopy, OCT1", "setting": "OCT1", "value": "negative"}]}]}
